From patent publication US6310177A, “Compounds and methods for modulating tissue permeability” (Adherex Technologies, Inc., priority 2000, dated 2001)
Where a SMILES comes first, the peptide text is derived from it. Bridges are numbered along the chain shown (N, C = ends).

How the values were obtained:
[1] = tested on: endothelial cell permeability in vivo; experiment: Miles assay for vascular permeability; conditions: rat, 100 μl subdermal injection of 100 μg/ml peptide in PBS, Evans blue i.v. 15 min later; for dye extracted from excised injection sites (optical density of dimethylformamide extracts at 620 nm): 24 h extraction, FIG. 6 and FIG. 8; for accumulation of Evans blue at the injection sites (visual): read 15 min after dye, FIG. 5
Procedure: The ability of an agent to modulate cell adhesion may generally be evaluated in vivo by assessing the effect on vascular permeability utilizing the Miles assay (McClure et al., J. Pharmacological& Toxicological Methods 32:49-52, 1994). Briefly, a candidate modulating agent may be dissolved in phosphate buffered saline (PBS) at a concentration of 100 μg/ml. Adult rats may be given 100 μl subdermal injections of each peptide solution into their shaved backs, followed 15 minutes later by a single 250 μl injection of 1% Evans blue dissolved in PBS into their tail veins. The subdermal injection sites may be visually monitored for the appearance of blue dye. Once the dye appears (about 15 minutes after injection), each subdermal injection site may be excised, weighed, and placed in 1 ml dimethylformamide for 24 hours to extract the dye. The optical density of the dye extracts may then be determined at 620 nm. In general, the injection of 0.1 ml of modulating agent (at a concentration of 0.1 mg/ml) into the backs of rats causes an increase of dye accumulation at the injection sites of at least 50%, as compared to dye accumulation at sites into which PBS has been injected.
This Example illustrates a vasopermeability assay for evaluating the effects of occludin-modulating agents on endothelial cell permeability in vivo.
The ability of cyclic and linear peptides to increase vascular permeability was assessed utilizing the Miles assay (McClure et al., J. Pharmacological& Toxicological Meth. 32:49-521994). The peptides were dissolved in phosphate buffered saline (PBS) at a concentration of 100 μg/ml. Adult rats were given 100 μl subdermal injections of each peptide solution into their shaved backs, followed 15 minutes later by a single 250 μl injection of 1% Evans blue dissolved in PBS into their tail veins. The subdermal injection sites were visually monitored for the appearance of blue dye. Once the dye appeared (15 minutes after injection), each subdermal injection site was excised, weighed, and placed in 1 ml dimethylformamide for 24 hours to extract the dye. The optical density of the dye extracts was determined at 620 nm. The effects of injecting either phosphate buffered saline, phosphate buffered saline containing acetyl-QYLYHYCVVD-NH2 (SEQ ID NO:2) H-QYLYHYCVVD-NH2 (SEQ ID NO:2), or H-QYLYHYCVVD-OH (SEQ ID NO:2) into sites along the shaved back of a rat on the accumulation of Evans blue at the injection sites is shown in FIG. 5.

[2] = tested on: Human aortic endothelial cells (HAEC); experiment: Endothelial cell adhesion assay with occludin and VE-cadherin immunolocalization; assay type: cell-based; conditions: 1 hour
From the text: The effect of a modulating agent on endothelial cell adhesion may generally be evaluated using immunolocalization techniques. Human aortic endothelial cells (HAEC) may be cultured on fibronectin-coated coverslips (fibronectinmay be obtained from Sigma, St. Louis, Mo.) according to the procedures of Jaffe et al., J. Clin. Invest. 52:2745-2756, 1973. Briefly, human endothelial cells may be maintained in EGM (endothelial cell growth medium; Clonetics, San Diego, Calif.) and used for experiments at passage 4. Confluent cultures of HAEC may be exposed to either a candidate modulating agent (final concentration 100 μg/ml EGM), or EGM alone for 1 hour. The cells are then be fixed for 30 minutes at 4° C. in 95% ethanol, followed by fixation in acetone for 1 minute at 4° C. (Furuse et al., J. Cell Biol. 123:1777-1788, 1993). After fixation, the cells may be probed with either mouse anti-VE-cadherin antibodies (Hemeris, Sassenage, France; diluted 1:250 in 0.1% dried skim milk powder dissolved in PBS), or rabbit anti-occludin antibodies (Zymed, South San Francisco, Calif.; diluted 1:300 in 0.1% dried skim milk powder dissolved in PBS) for 1 hour at 37° C. The cells may then be washed with 0.1% dried skim milk powder dissolved in PBS (three washes, 5 minutes/wash), and probed with secondary antibodies (donkey anti-mouse Cy3, or donkey anti-rabbit Cy5 diluted 1:250 in 0.1% dried skim milk powder dissolved in PBS; Jackson Immunoresearch Laboratories Inc., Westgrove, Pa.) for 1 hour at 37° C. The cells may then be washed again with in 0.1% dried skim milk powder dissolved in PBS and mounted in a solution composed of 50% glycerol and 50% PBS to which phenylenediamine (Sigma, St. Louis, Mo.) has been added to a final concentration of 1 mg/ml. The sample may then be analyzed using a Bio-Rad MRC 1000 confocal microscope with Laser Sharp software version 2.1T (Bio-Rad, Hercules, Calif.). In general, 0.1 mg/ml of modulating agent results in the appearance of intercellular gaps within the monolayer cultures and a decrease of at least 50% in the surface expression of occludin and VE-cadherin, as compared to monolayer cultures that were not exposed to the modulating agent.
This Example illustrates an endothelial cell adhesion assay for evaluating the effects of occludin-modulating agents on endothelial cell adhesion.
Human aortic endothelial cells (HAEC) were cultured on fibronectin (Sigma, St. Louis, Mo.) according to the procedures of Jaffe et al., J. Clin. Invest. 52:2745-2756, 1973. Cells were maintained in EGM (endothelial cell growth medium; Clonetics, San Diego, Calif.) and used for experiments at passage 4.
HAEC were cultured on fibronectin-coated coverslips. Confluent cultures of HAEC were exposed to linear peptides (final concentration 100 μg/ml EGM), or EGM alone for 1 hour. […]

[3] = HAEC, 100 μg/ml peptide, immunofluorescence, vs untreated cells

Molecule	dye extracted from excised injection sites (optical density of dimethylformamide extracts at 620 nm) [1]	accumulation of Evans blue at the injection sites (visual) [1]	surface expression of VE-cadherin [2, 3]	surface expression of occludin [2, 3]	endothelial cell adhesion (retraction of cells, gaps between cells) ([2]; confluent HAEC monolayers, 100 μg/ml peptide in EGM, vs untreated cells, FIG. 4)	formation of cobblestone-like monolayers ([2]; confluent HAEC, 100 μg/ml peptide, FIG. 4B)
CC(C)C[C@@H]1NC(=O)[C@@H](N)CSSC[C@@H](C(=O)O)NC(=O)[C@H](Cc2ccc(O)cc2)NC(=O)[C@H](Cc2c[nH]cn2)NC(=O)[C@H](Cc2ccc(O)cc2)NC1=O [H-CLYHYC-OH] (H-CLYHYC-OH; disulfide 1-6)	more dye was extracted	–	–	–	–	–
CC(=O)N[C@H]1CSSC[C@@H](C(N)=O)NC(=O)[C@H](Cc2ccc(O)cc2)NC(=O)[C@H](Cc2c[nH]cn2)NC(=O)[C@H](Cc2ccc(O)cc2)NC(=O)[C@H](CC(C)C)NC1=O [acetyl-CLYHYC-NH2] (Ac-CLYHYC-NH2; disulfide 1-6)	more dye was extracted from the sites injected with H-CLYHYC-OH	–	–	–	–	–
Ac-QYLYHYCVVD-NH2 [acetyl-QYLYHYCVVD-NH2]	more dye was extracted from the sites injected with H-QYLYHYCVVD-OH	more blue dye has accumulated at the sites where the peptide H-QYLYHYCVVD-OH	–	–	–	–
H-QYLYHYCVVD-NH2 [H-QYLYHYCVVD-NH2]	more dye was extracted from the sites injected with H-QYLYHYCVVD-OH	more blue dye has accumulated at the sites where the peptide H-QYLYHYCVVD-OH	–	–	–	–
H-QYLYHYCVVD-OH [H-QYLYHYCVVD-OH]	more dye was extracted	more blue dye has accumulated	greatly reduced	greatly reduced	adhesion is decreased between the cells	do not form cobblestone-like monolayers
